Reference: patent US20240300936A1 (priority 2021, published 2024)

System: HELA cells
Assay: HELA cell proliferation assay (CellTitre-Glo, 6 days)
Type: cell-based
Conditions: Homo sapiens, 144 h; HELA cells, 6 days treatment, CellTitre-Glo; read-out: HeLa pIC50 (converted)

SMILES	IC50 [nM]
COc1cccc(CNc2nc(N)nc(-c3ccc4cn[nH]c4c3)n2)c1F [Example 85, N2-[(2-Fluoro-3-methoxy-phenyl)methyl]-6-(1H-indazol-6-yl)-1,3,5-triazine-2,4-diamine]	1580
Cn1ncc2ccc(-c3nc(N)nc(NC4(c5ccn(C(F)F)n5)CC4)n3)cc21 [Example 32, N4-[1-[1-(Difluoromethyl)pyrazol-3-yl]cyclopropyl]-6-(1-methylindazol-6-yl)-1,3,5-triazine-2,4-diamine]	1290
